Assay results taken from paper PMC8973362, “5-(Sulfamoyl)thien-2-yl 1,3-oxazole inhibitors of carbonic anhydrase II with hydrophilic periphery” (Journal of Enzyme Inhibition and Medicinal Chemistry, 2022).
Read-outs that look alike come from different tables or passages of the source.

How the values were obtained:
[1] = target: T1, hCA I (Homo sapiens, UniProt P00915); test: stopped-flow CO2 hydrase assay, hCA I; assay type: biochemical
T1 construct: made in house

[2] = target: T2, hCA II (Homo sapiens, UniProt P00918); test: stopped-flow CO2 hydrase assay, hCA II; assay type: biochemical
T2 construct: made in house

[3] = target: T3, hCA XII (Homo sapiens, UniProt O43570); test: stopped-flow CO2 hydrase assay, hCA XII; assay type: biochemical
T3 construct: made in house

[4] = target: T4, hCA IV (Homo sapiens, UniProt P22748); test: stopped-flow CO2 hydrase assay, hCA IV; assay type: biochemical
T4 construct: made in house

[5] = test system: intraocular pressure; test: intraocular pressure (IOP) lowering in normotensive rabbits; assay type: in vivo; details: 1% eye drop, normotensive New Zealand White rabbits, n = 6, tested twice; comparable to 1 (dorzolamide, 2% eye drops)

T3 sequence (O43570 25-354): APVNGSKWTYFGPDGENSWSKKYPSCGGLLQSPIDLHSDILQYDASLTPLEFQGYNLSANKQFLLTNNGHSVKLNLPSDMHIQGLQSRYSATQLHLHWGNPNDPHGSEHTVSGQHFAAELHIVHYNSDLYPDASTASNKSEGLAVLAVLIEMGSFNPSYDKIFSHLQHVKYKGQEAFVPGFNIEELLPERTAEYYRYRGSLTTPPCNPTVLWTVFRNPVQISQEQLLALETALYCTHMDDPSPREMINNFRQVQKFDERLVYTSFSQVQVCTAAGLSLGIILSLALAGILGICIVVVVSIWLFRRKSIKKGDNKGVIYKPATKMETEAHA
T4 sequence (P22748 19-312): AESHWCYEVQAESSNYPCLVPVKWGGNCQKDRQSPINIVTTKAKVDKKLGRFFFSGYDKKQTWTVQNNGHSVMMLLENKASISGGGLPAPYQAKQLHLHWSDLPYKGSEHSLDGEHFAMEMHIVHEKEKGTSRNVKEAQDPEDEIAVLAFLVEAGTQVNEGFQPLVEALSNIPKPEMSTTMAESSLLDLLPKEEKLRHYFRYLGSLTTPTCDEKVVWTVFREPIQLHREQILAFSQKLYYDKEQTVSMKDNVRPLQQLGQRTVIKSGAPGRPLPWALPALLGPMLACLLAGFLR
T1 sequence (P00915 whole entry): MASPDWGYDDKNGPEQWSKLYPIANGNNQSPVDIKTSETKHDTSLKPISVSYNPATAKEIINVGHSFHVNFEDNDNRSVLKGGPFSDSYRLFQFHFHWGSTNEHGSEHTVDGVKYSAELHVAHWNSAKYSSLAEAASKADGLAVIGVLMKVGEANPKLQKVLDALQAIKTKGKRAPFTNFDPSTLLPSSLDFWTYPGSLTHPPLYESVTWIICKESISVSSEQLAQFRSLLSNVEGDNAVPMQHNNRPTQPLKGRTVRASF

Row | Ki ([1]; mean from three assays by stopped flow technique, errors ± 5–10%, read-out: Ki hCA I) [nM] | Ki ([2]; mean from three assays by stopped flow technique, errors ± 5–10%, read-out: Ki hCA II) [nM] | Ki ([3]; mean from three assays by stopped flow technique, errors ± 5–10%, read-out: Ki hCA XII) [nM] | Ki ([4]; mean from three assays by stopped flow technique, errors ± 5–10%, read-out: Ki hCA IV) [nM] | SMILES | Ki [1] [nM] | Ki [2] [nM] | Ki [3] [nM] | Ki [4] [nM] | IOP lowering effect [5]
1 | – | – | – | – | NC1CCN(C(=O)c2ncc(-c3ccc(S(N)(=O)=O)s3)o2)CC1 [7c] | 31.3 | 0.41 | 5.7 | 30.6 | –
2 | 58.3 | 3.1 | 8.8 | 4.6 | NCCCNC(=O)c1ncc(-c2ccc(S(N)(=O)=O)s2)o1 [7e] | – | – | – | – | –
3 | – | – | – | – | NS(=O)(=O)c1ccc(-c2cnc(C(=O)N3CCNCC3)o2)s1 [7a] | 4 | 0.069 | 3.9 | 21.6 | clear IOP lowering effect
4 | – | – | – | – | NCCNC(=O)c1ncc(-c2ccc(S(N)(=O)=O)s2)o1 [7d] | 72.9 | – | 9.3 | – | –
5 | – | – | – | – | NS(=O)(=O)c1ccc(-c2cnc(C(=O)NC3CCNCC3)o2)s1 [7b] | 56.8 | – | 8.9 | – | –
